Results from patent publication US6737383B1, “Herbicidal oxadiazolidines” (priority 1999, dated 2004).

Experiments:
[1] = tested on: bedstraw; test: Test B pre/postemergence bedstraw; format: in vivo, Galium aparine; conditions: Preemergence
Summary of the method: (§1)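 Test chemicals in a non-phytotoxic solvent mixture with surfactant were sprayed preemergence onto planted seeds and postemergence onto plants 2 to 18 cm tall (1- to 4-leaf stage). After twelve to sixteen days in a greenhouse, injury was visually rated against untreated controls from 0 (no effect) to 10 (complete control).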

[2] = tested on: blackgrass; test: Test B pre/postemergence blackgrass; format: in vivo, Alopecurus myosuroides
Summary of the method: as §1

[3] = tested on: surinam grass; test: Test B pre/postemergence surinam grass; format: in vivo, Brachiaria decumbens
Summary of the method: as §1

[4] = tested on: cocklebur; test: Test B pre/postemergence cocklebur; format: in vivo, Xanthium strumarium
Summary of the method: as §1

[5] = tested on: corn; test: Test B pre/postemergence corn; format: in vivo, Zea mays
Summary of the method: as §1

[6] = tested on: crabgrass; test: Test B pre/postemergence crabgrass; format: in vivo, Digitaria sanguinalis
Summary of the method: as §1

[7] = tested on: giant foxtail; test: Test B pre/postemergence giant foxtail; format: in vivo, Setaria faberii
Summary of the method: as §1

[8] = tested on: morningglory; test: Test B pre/postemergence morningglory; format: in vivo, Ipomoea hederacea
Summary of the method: as §1

[9] = tested on: pigweed; test: Test B pre/postemergence pigweed; format: in vivo, Amaranthus retroflexus
Summary of the method: as §1

[10] = tested on: rape; test: Test B pre/postemergence rape; format: in vivo, Brassica napus
Summary of the method: as §1

[11] = tested on: soybean; test: Test B pre/postemergence soybean; format: in vivo, Glycine max
Summary of the method: as §1

[12] = tested on: sugar beet; test: Test B pre/postemergence sugar beet; format: in vivo, Beta vulgaris
Summary of the method: as §1

[13] = tested on: velvetleaf; test: Test B pre/postemergence velvetleaf; format: in vivo, Abutilon theophrasti
Summary of the method: as §1

[14] = tested on: wheat; test: Test B pre/postemergence wheat; format: in vivo, Triticum aestivum
Summary of the method: as §1

[15] = tested on: wild oat; test: Test B pre/postemergence wild oat; format: in vivo, Avena fatua
Summary of the method: as §1

[16] = tested on: purple nutsedge; test: Test B pre/postemergence purple nutsedge; format: in vivo, Cyperus rotundus
Summary of the method: as §1

[17] = tested on: rice; test: Test B flood test rice; format: in vivo, Oryza sativa
Summary of the method: (§2)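 Read-out is a visual response score from 0 (no effect) to 10 (complete control), assigned by comparison with untreated controls. Treatment was applied at the 2-leaf stage, and plants stayed in the greenhouse for twelve to sixteen days before scoring.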

[18] = tested on: smallflower flatsedge; test: Test B flood test smallflower flatsedge; format: in vivo, Cyperus difformis
Summary of the method: as §2

[19] = tested on: duck salad; test: Test B flood test duck salad; format: in vivo, Heteranthera limosa
Summary of the method: as §2

[20] = tested on: bamyardgrass; test: Test B flood test barnyardgrass; format: in vivo, Echinochloa crus-galli
Summary of the method: as §2

[21] = Preemergence, Rate 62 g/ha, scale of 0 to 10 where 0 is no effect and 10 is complete control
[22] = Preemergence, Rate 125 g/ha, scale of 0 to 10 where 0 is no effect and 10 is complete control
[23] = Preemergence, Rate 250 g/ha, scale 0 to 10 (0 no effect, 10 complete control)
[24] = Preemergence, Rate 500 g/ha, scale of 0 to 10 where 0 is no effect and 10 is complete control
[25] = Rate 62 g/ha, flood test species, Pre-emergence, visual evaluation after twelve to sixteen days
[26] = Rate 125 g/ha, under heading Pre-emergence, flood test species, visual evaluation after twelve to sixteen days
[27] = Rate 250 g/ha, Pre-emergence (flood test species), scale 0 to 10, 0 is no effect, 10 is complete control
[28] = Rate 500 g/ha, Pre-emergence section of Table B, 0 to 10 scale (0 no effect, 10 complete control)
[29] = Postemergence, Rate 125 g/ha, scale 0 to 10, 0 is no effect, 10 is complete control
[30] = Postemergence, Rate 250 g/ha, scale 0 to 10, 0 is no effect, 10 is complete control
[31] = Postemergence, Rate 500 g/ha, scale of 0 to 10 where 0 is no effect and 10 is complete control
[32] = Preemergence, Rate 62 g/ha, scale 0 to 10 (0 no effect, 10 complete control)
[33] = Preemergence, Rate 250 g/ha, scale of 0 to 10 where 0 is no effect and 10 is complete control
[34] = Preemergence, Rate 500 g/ha, scale 0 to 10, 0 is no effect, 10 is complete control
[35] = Rate 62 g/ha, Postemergence, scale of 0 to 10 where 0 is no effect and 10 is complete control
[36] = Preemergence, Rate 250 g/ha, scale 0 to 10, 0 is no effect, 10 is complete control
[37] = Postemergence section (flood test species), Rate 500 g/ha, scale of 0 to 10 where 0 is no effect and 10 is complete control
[38] = flood test species, listed under Postemergence, Rate 250 g/ha, scale 0 to 10, 0 is no effect, 10 is complete control
[39] = Postemergence (flood test), Rate 125 g/ha, scale 0 to 10, 0 is no effect, 10 is complete control
[40] = Rate 62 g/ha, Postemergence (flood test species), scale of 0 to 10 where 0 is no effect and 10 is complete control

CC(C)N(C(=O)n1oc(=O)n(C(C)C2CC2)c1=O)c1ccccc1 (stereo not drawn) [Compound 699]
Bedstraw plant response rating ([1]; Rate 62 g/ha, scale of 0 to 10 where 0 is no effect and 10 is complete control): 0
Plant response rating, Bedstraw ([1]; Rate 250 g/ha, scale 0 to 10 (0 no effect, 10 complete control)): 0
Plant response rating, Bedstraw ([1]; Rate 500 g/ha, scale of 0 to 10 where 0 is no effect and 10 is complete control): 0
Blackgrass plant response rating [2, 21]: 8
Plant response rating, Blackgrass [2, 22]: 10
Plant response rating, Blackgrass [2, 23]: 10
Plant response rating, Blackgrass [2, 24]: 10
B. signalgrass plant response rating [3, 21]: 8
Plant response rating, B. signalgrass [3, 22]: 9
Plant response rating, B. signalgrass [3, 23]: 9
Plant response rating, B. signalgrass [3, 24]: 10
Cocklebur plant response rating [4, 21]: 0
Plant response rating, Cocklebur [4, 22]: 0
Plant response rating, Cocklebur [4, 23]: 0
Plant response rating, Cocklebur [4, 24]: 0
Corn plant response rating [5, 21]: 3
Plant response rating, Corn [5, 22]: 6
Plant response rating, Corn [5, 23]: 8
Crabgrass plant response rating [6, 21]: 10
Plant response rating, Crabgrass [6, 22]: 10
Plant response rating, Crabgrass [6, 23]: 10
Giant foxtail plant response rating [7, 21]: 10
Plant response rating, Giant foxtail [7, 22]: 10
Morningglory plant response rating [8, 21]: 2
Plant response rating, Morningglory [8, 22]: 4
Redroot pigweed plant response rating [9, 21]: 3
Plant response rating, Redroot pigweed [9, 22]: 3
Rape plant response rating [10, 21]: 0
Plant response rating, Rape [10, 22]: 2
Soybean plant response rating [11, 21]: 0
Plant response rating, Soybean [11, 22]: 2
Sugarbeets plant response rating [12, 21]: 3
Plant response rating, Sugarbeets [12, 22]: 4
Velvetleaf plant response rating [13, 21]: 0
Plant response rating, Velvetleaf [13, 22]: 2
Wheat plant response rating [14, 21]: 0
Plant response rating, Wheat [14, 22]: 3
Wild oats plant response rating [15, 21]: 9
Plant response rating, Wild oats [15, 22]: 10
Nutsedge plant response rating [16, 21]: 0
Plant response rating, Nutsedge [16, 22]: 0
Plant response rating, Rice (0 to 10 scale, 0 is no effect, 10 is complete control) [17, 25]: 0
Rice plant response rating (0 to 10 scale, 0 is no effect, 10 is complete control) [17, 26]: 0
Rice plant response rating [17, 27]: 5
Rice plant response rating [17, 28]: 4
Plant response rating, S. Flatsedge (0 to 10 scale, 0 is no effect, 10 is complete control) [18, 25]: 6
S. Flatsedge plant response rating (0 to 10 scale, 0 is no effect, 10 is complete control) [18, 26]: 7
S. Flatsedge plant response rating [18, 27]: 9
S. Flatsedge plant response rating [18, 28]: 8
Plant response rating, Ducksalad (0 to 10 scale, 0 is no effect, 10 is complete control) [19, 25]: 3
Ducksalad plant response rating (0 to 10 scale, 0 is no effect, 10 is complete control) [19, 26]: 8
Ducksalad plant response rating [19, 27]: 9
Ducksalad plant response rating [19, 28]: 9
Plant response rating, Barnyardgrass (0 to 10 scale, 0 is no effect, 10 is complete control) [20, 25]: 4
Barnyardgrass plant response rating (0 to 10 scale, 0 is no effect, 10 is complete control) [20, 26]: 4
Barnyardgrass plant response rating [20, 27]: 8
Barnyardgrass plant response rating [20, 28]: 8

C=C(C)CCn1c(=O)on(C(=O)N(c2ccccc2)C(C)C)c1=O [Compound 418]
Plant response rating, Blackgrass [2, 29]: 4
Plant response rating, Blackgrass [2, 30]: 4
Blackgrass plant response rating [2, 31]: 6
Plant response rating, Blackgrass [2, 32]: 4
Plant response rating, Blackgrass [2, 22]: 4
Blackgrass plant response rating [2, 33]: 7
Blackgrass plant response rating [2, 34]: 0
Blackgrass plant response rating [2, 35]: 2
Plant response rating, B. signalgrass [3, 29]: 0
Plant response rating, B. signalgrass [3, 30]: 0
B. signalgrass plant response rating [3, 31]: 2
Plant response rating, B. signalgrass [3, 32]: 0
Plant response rating, B. signalgrass [3, 22]: 3
B. signalgrass plant response rating [3, 33]: 6
B. signalgrass plant response rating [3, 24]: 6
B. signalgrass plant response rating [3, 35]: 0
Plant response rating, Cocklebur [4, 29]: 0
Plant response rating, Cocklebur [4, 30]: 0
Cocklebur plant response rating [4, 31]: 0
Plant response rating, Cocklebur [4, 32]: 0
Plant response rating, Cocklebur [4, 22]: 0
Cocklebur plant response rating [4, 36]: 0
Cocklebur plant response rating [4, 34]: 0
Cocklebur plant response rating [4, 35]: 0
Plant response rating, Corn [5, 29]: 0
Plant response rating, Corn [5, 30]: 0
Corn plant response rating [5, 31]: 0
Plant response rating, Corn [5, 32]: 0
Plant response rating, Corn [5, 22]: 0
Corn plant response rating [5, 36]: 2
Corn plant response rating [5, 35]: 0
Plant response rating, Crabgrass [6, 29]: 0
Plant response rating, Crabgrass [6, 30]: 3
Crabgrass plant response rating [6, 31]: 6
Plant response rating, Crabgrass [6, 32]: 6
Plant response rating, Crabgrass [6, 22]: 8
Crabgrass plant response rating [6, 36]: 10
Crabgrass plant response rating [6, 34]: 10
Crabgrass plant response rating [6, 35]: 0
Plant response rating, Giant foxtail [7, 29]: 0
Plant response rating, Giant foxtail [7, 30]: 8
Giant foxtail plant response rating [7, 31]: 9
Plant response rating, Giant foxtail [7, 32]: 7
Plant response rating, Giant foxtail [7, 22]: 8
Giant foxtail plant response rating [7, 36]: 10
Giant foxtail plant response rating [7, 34]: 10
Giant foxtail plant response rating [7, 35]: 0
Plant response rating, Morningglory [8, 30]: 8
Morningglory plant response rating [8, 31]: 10
Plant response rating, Morningglory [8, 32]: 0
Plant response rating, Morningglory [8, 22]: 0
Morningglory plant response rating [8, 36]: 0
Morningglory plant response rating [8, 34]: 0
Plant response rating, Redroot pigweed [9, 30]: 0
Redroot pigweed plant response rating [9, 31]: 0
Plant response rating, Redroot pigweed [9, 32]: 2
Plant response rating, Redroot pigweed [9, 22]: 3
Redroot pigweed plant response rating [9, 36]: 8
Redroot pigweed plant response rating [9, 34]: 8
Plant response rating, Rape [10, 30]: 0
Rape plant response rating [10, 31]: 0
Plant response rating, Rape [10, 32]: 0
Plant response rating, Rape [10, 22]: 0
Rape plant response rating [10, 36]: 0
Rape plant response rating [10, 34]: 9
Plant response rating, Soybean [11, 30]: 4
Soybean plant response rating [11, 31]: 6
Plant response rating, Soybean [11, 32]: 0
Plant response rating, Soybean [11, 22]: 0
Soybean plant response rating [11, 36]: 0
Soybean plant response rating [11, 34]: 0
Plant response rating, Sugarbeets [12, 30]: 0
Sugarbeets plant response rating [12, 31]: 0
Plant response rating, Sugarbeets [12, 32]: 0
Plant response rating, Sugarbeets [12, 22]: 2
Sugarbeets plant response rating [12, 36]: 2
Sugarbeets plant response rating [12, 34]: 2
Plant response rating, Velvetleaf [13, 30]: 0
Velvetleaf plant response rating [13, 31]: 0
Plant response rating, Velvetleaf [13, 32]: 0
Plant response rating, Velvetleaf [13, 22]: 3
Velvetleaf plant response rating [13, 36]: 5
Velvetleaf plant response rating [13, 34]: 6
Wheat plant response rating [14, 31]: 0
Plant response rating, Wheat [14, 32]: 0
Plant response rating, Wheat [14, 22]: 0
Wheat plant response rating [14, 36]: 0
Wheat plant response rating [14, 34]: 2
Wild oats plant response rating [15, 31]: 3
Plant response rating, Wild oats [15, 32]: 0
Plant response rating, Wild oats [15, 22]: 0
Wild oats plant response rating [15, 36]: 0
Wild oats plant response rating [15, 34]: 0
Plant response rating, Nutsedge [16, 30]: 0
Nutsedge plant response rating [16, 31]: 0
Plant response rating, Nutsedge [16, 32]: 0
Plant response rating, Nutsedge [16, 22]: 0
Nutsedge plant response rating [16, 36]: 0
Nutsedge plant response rating [16, 34]: 0
Rice plant response rating [17, 37]: 0
Plant response rating, Rice [17, 38]: 0
S. Flatsedge plant response rating [18, 37]: 4
Plant response rating, S. Flatsedge [18, 38]: 4
Plant response rating, Ducksalad [19, 39]: 0
Ducksalad plant response rating [19, 37]: 2
Ducksalad plant response rating [19, 40]: 0
Plant response rating, Ducksalad [19, 38]: 2
Plant response rating, Barnyardgrass [20, 39]: 0
Barnyardgrass plant response rating [20, 37]: 0
Barnyardgrass plant response rating [20, 40]: 0
Plant response rating, Barnyardgrass [20, 38]: 0
